Read-outs that look alike come from different tables or passages of the source.
System: 407 cancer cell lines
Experiment: Cell viability of cancer cell lines (IC50), CellTiter-Glo Viability Assay, 96 h
Type: cell-based
Conditions: Homo sapiens, read-out: Absolute IC50
Description: Viability was determined by using the 50% inhibitory concentration (IC50) as determined with the CellTiter-Glo® Viability Assay (Promega).
Experiments were initiated by first thawing and equilibrating the CellTiter-Glo® Buffer to room temperature. The lyophilized CellTiter-Glo® Substrate was also equilibrated to room temperature. The lyophilized substrate was reconstituted with the CellTiter-Glo® buffer to form the CellTiter-Glo® Reagent.
Cells were harvested during the logarithmic growth period, counted, and the cell concentration adjusted to 4.44×10^4 cells/mL using culture medium.
Cells were allowed to grow overnight and the following day, the TO reading was obtained by adding 10 μL culture medium to each well of Plate A. The plate was allowed to equilibrate at room temperature for thirty minutes, after which 50 μL CellTiter-Glo® reagent was added to each well. The contents were mixed for 5 min on an orbital shaker to induce cell lysis. Plates were incubated for 20 minutes to stabilize the luminescent signal and the TO luminescence recorded.
Test plate B was incubated for 96 h in the humidified incubator at 37° C. with 5% CO2.
Following the incubation, the plate was equilibrated at room temperature for thirty minutes. CellTiter-Glo® (50 μL) was added to each well of the plate and contents mixed for five minutes on an orbital shaker to induce cell lysis. The luminescent signal was allowed to stabilize at room temperature for 20 minutes and the luminescence recorded.
IC50 (EC50) was calculated using a dose-response curve, fitted using a nonlinear regression model with a sigmoidal dose response. Survival rate was calculated using the formula:
The Surviving rate (%)=(LumTest article−LumMedium control)/(LumNon-treated−LumMedium control)×100%.
Absolute IC50 (EC50) was calculated according to the dose-response curve generated by the statistical software (GraphPad Prism 5.0).

Q: Which IC50 (DMS-79, DMS 79) does the source give for Cc1nn(-c2nc(-c3ccc(C(F)(F)F)cc3)c(SC(C)C)s2)c(C(=O)O)c1-c1cccc(F)c1 [Compound A197, 4-(3-fluorophenyl)-1-(5-(isopropylthio)-4-(4-(trifluoromethyl)phenyl)thiazol-2-yl)-3-methyl-1H-pyrazole-5-carboxylic acid] here?
A: > 30000 nM

Q: What about the IC50 (DMS-114, 96 h, DMS 114 cells, 96 h) of the same compound?
A: > 30000 nM

Q: And the IC50 (DOHH-2, 96 h, DOHH-2 cells, 96 h)?
A: 310 nM

Q: What about the IC50 (DU-145, 96 h, DU 145, 96 h) of the same compound?
A: 850 nM

Q: What about the IC50 (DU-4475, DU4475) of the same compound?
A: 320 nM

Q: And the IC50 (DV-90, 96 h, DV-90 cells, 96 h)?
A: > 30000 nM

Q: What about the IC50 (Daoy, 96 h, Daoy cells, 96 h) of the same compound?
A: > 30000 nM

Q: What about the IC50 (Daudi, 96 h, Daudi cells, 96 h) of the same compound?
A: 810 nM

Q: And the IC50 (Detroit 562, 96 h, Detroit 562 cells, 96 h)?
A: > 30000 nM

Q: What about the IC50 (DoTc2-4510, 96 h, DoTc2 4510 cells, 96 h) of the same compound?
A: > 30000 nM

Q: And the IC50 (EBC-1, 96 h)?
A: > 30000 nM

Q: And the IC50 (EJM, 96 h, EJM cells, 96 h)?
A: 3000 nM

Q: And the IC50 (EOL1, EOL-1)?
A: 740 nM

Q: And the IC50 (ES-2, 96 h, ES-2 cells, 96 h)?
A: > 30000 nM

Q: And the IC50 (FTC-133, FTC-133)?
A: 840 nM

Q: And the IC50 (FaDu, 96 h, FaDu, 96 h)?
A: 380 nM

Q: What about the IC50 (G292, 96 h, G-292 clone A141B1 cells, 96 h) of the same compound?
A: 1860 nM

Q: What about the IC50 (GTL 16, 96 h, GTL-16 cells, 96 h) of the same compound?
A: > 30000 nM

Q: What about the IC50 (Granta-519, GRANTA-519) of the same compound?
A: 1000 nM

Q: And the IC50 (HCC38, HCC38)?
A: > 30000 nM

Q: What about the IC50 (HCC78, 96 h, HCC-78 cells, 96 h) of the same compound?
A: 410 nM

Q: And the IC50 (HCC827, 96 h, HCC827 cells, 96 h)?
A: > 30000 nM

Q: And the IC50 (HCC1187, 96 h, HCC1187 cells, 96 h)?
A: > 30000 nM

Q: What about the IC50 (HCC1428, HCC1428) of the same compound?
A: > 30000 nM

Q: What about the IC50 (HCC1569, HCC1569) of the same compound?
A: > 30000 nM

Q: What about the IC50 (HCC1806, 96 h, HCC1806 cells, 96 h) of the same compound?
A: > 30000 nM

Q: What about the IC50 (HCC1937, HCC1937) of the same compound?
A: > 30000 nM

Q: What about the IC50 (HCC1954, HCC1954) of the same compound?
A: > 30000 nM

Q: What about the IC50 (HCC2218, 96 h) of the same compound?
A: > 30000 nM

Q: And the IC50 (HCC2935, HCC2935)?
A: > 30000 nM

Q: And the IC50 (HCC4006, 96 h)?
A: 460 nM

Q: And the IC50 (HCCLM3, 96 h, HCCLM3 cells, 96 h)?
A: > 30000 nM

Q: What about the IC50 (HCT-8, HCT-8) of the same compound?
A: 770 nM

Q: And the IC50 (HCT-15, HCT-15)?
A: 300 nM

Q: What about the IC50 (HCT-116, HCT-116) of the same compound?
A: 920 nM

Q: And the IC50 (HEC-1-A, 96 h, HEC-1-A cells, 96 h)?
A: > 30000 nM

Q: And the IC50 (HEC-1B, 96 h, HEC-1-B cells, 96 h)?
A: 550 nM

Q: And the IC50 (HEL 92.1.7, HEL 92.1.7)?
A: 380 nM

Q: And the IC50 (HGC-27, 96 h, HGC-27 cells, 96 h)?
A: 510 nM

Q: And the IC50 (HL-60, HL-60)?
A: 990 nM

Q: And the IC50 (HLE, 96 h, HLE cells, 96 h)?
A: > 30000 nM

Q: What about the IC50 (HOS, 96 h, HOS cells, 96 h) of the same compound?
A: > 30000 nM

Q: What about the IC50 (HPAC) of the same compound?
A: 460 nM

Q: And the IC50 (HT55, HT-55)?
A: > 30000 nM

Q: And the IC50 (HT-3, 96 h, HT-3 cells, 96 h)?
A: > 30000 nM

Q: What about the IC50 (HT-29, HT-29) of the same compound?
A: 1270 nM

Q: And the IC50 (HT-1080, 96 h)?
A: 1040 nM

Q: What about the IC50 (HT-1376, HT-1376) of the same compound?
A: > 30000 nM

Q: And the IC50 (HeLa 229, 96 h, HeLa 229 cells, 96 h)?
A: > 30000 nM

Q: What about the IC50 (HeLa, 96 h, HeLa cells, 96 h) of the same compound?
A: 1740 nM

Q: And the IC50 (Hep3B)?
A: > 30000 nM

Q: And the IC50 (HepG2, Hep G2)?
A: > 30000 nM

Q: And the IC50 (HuCCT-1, 96 h, HuCCT1, 96 h)?
A: > 30000 nM

Q: And the IC50 (HuH-1, HUH-1)?
A: > 30000 nM

Q: What about the IC50 (HuT78, HuT 78) of the same compound?
A: 630 nM

Q: And the IC50 (HuTu80, Hutu 80)?
A: 860 nM

Q: What about the IC50 (Huh-7, 96 h, HUH-7 cells, 96 h) of the same compound?
A: 1050 nM

Q: And the IC50 (IMR-32, 96 h, IMR-32 cells, 96 h)?
A: 800 nM

Q: And the IC50 (Ishikawa, 96 h, Ishikawa, 96 h)?
A: 290 nM

Q: What about the IC50 (J82, 96 h, J82 cells, 96 h) of the same compound?
A: 1110 nM

Q: And the IC50 (JEG-3, 96 h, JEG-3 cells, 96 h)?
A: 1080 nM

Q: And the IC50 (JIMT-1, 96 h, JIMT-1 cells, 96 h)?
A: > 30000 nM

— patent US20210278408A1, “METHODS OF TREATMENT OF CANCER WITH SUBSTITUTED PYRROLE AND PYRAZOLE COMPOUNDS AND DIAGNOSIS OF CANCERS SUSCEPTIBLE TO TREATMENT WITH SUBSTITUTED PYRROLE AND PYRAZOLE COMPOUNDS” (Bantam Pharmaceutical, LLC, priority 2018, published 2021)
